Measured values from US8338423B2, “Compositions for the treatment of hyperphenylalaninemia” (Universidad de Zaragoza, priority 2007, dated 2012).

Legend:
[1] = test system: PAH protein expressed in A293 cells; experiment: Immunoreactive PAH protein (Western blot) in transfected A293 cells; format: cell-based, human; details: 40 μM compound, 24 h (FIG. 4B)
Procedure: (§1) Human embryonic kidney cells (A293; purchased from Invitrogen) were grown in Dulbecco's Modified Eagle's Medium (DMEM) containing 4.5 g/l glucose, 10% (v/v) fetal calf serum, 2 mM L-glutamine, 100 i.u./ml penicillin, 100 μg/ml streptomycin and 0.25 mg/ml G-418. A293 cells were transiently transfected with 1 μg of pcDNA3-PAH expression vector (wt or mutant PAH constructs), using the lipofectamine system (Gibco, Invitrogen) as described by the manufacturer. Pharmacological chaperones were added after 5 h of transfection (final concentration 40 μM ligand in DMSO 1%), incubated for 24 h and cells were then harvested and stored at −80° C. […]
(§2) Western blot analyses were performed after SDS-PAGE (10% acrylamide) using as primary antibody a monoclonal mouse ant-human PAH (Chemicon, Australia) and as secondary antibody a goat anti-mouse HRP conjugate (Bio-Rad, US). Detection was performed using a chemiluminiscence method (ECL; Amersham Biosciences) and quantified an a Fluor-S™ Multilmager (Bio-Rad, US) using Quantify one v. […]
(§3) After transfection of A293 cells with constructs carrying wt-PAH and PKU mutants cDNA, the cells were incubated for 24 h in the presence or absence of 40 μM of hit compounds 11 and 13. Cell were harvested and immunoreactive PAH protein and PAH activity were measured in soluble cell extracts. […]

[2] = test system: wt-PAH and I65T and R68S mutants expressed in A293 cells; experiment: PAH activity in extracts of transiently transfected A293 cells; format: cell-based, human; details: 40 μM compound, 24 h, vs DMSO 1% controls (FIG. 4A)
Procedure: as §1, §2, §3

Pah-mRNA = Pah-mRNA expression in mouse liver by quantitative real-time PCR; format: in vivo; details: treated mice compared to controls, 10 days oral
Procedure: Animal experiments were performed by Beat Töny (University of Zurich Children's Hospital). 25 μl/day of 10% DMSO (Group 1, control) or the solutions of Compound 11 (Group 2) or Compound 13 (Group […]) were administered orally for 10 days to young adult C57BI/6 mice (all females) exactly 12 weeks old and with weight between 19 to 23 g were in each group, i.e. in Group 2 and 3 animals were given about 5.9 mg/kg/day. Five animals were treated in each group, and no weight change was experienced upon treatment, i.e. <5% change between start and end. Animals were sacrificed at day 10 of treatment, and their livers were sectioned in two frozen immediately in liquid nitrogen, then the frozen half-livers were sent to the Department of Biomedicine, University of Bergen in dry ice. […]
(§4) The concentration of soluble protein was about 35 mg/ml of liver extract, similar in each group. The hepatic PAH response to oral supplementation of DMSO and of Compounds 11, 13 in 10% DMSO was analyzed b determining: • i) PAH activity, as described, after removal of free amino acids and contaminants of low molecular weight by using Zebra™ Desalt Spin columns(Pierce). • ii) Pah-mRNA expression by quantitative real-time PCR analysis, performed as reported

PAH = target: T1, PAH (Mus musculus, UniProt P16331); experiment: Hepatic PAH activity in mice after oral treatment; format: in vivo; details: oral about 5.9 mg/kg/day for 10 days; for measured PAH activity: liver extract, control group 1.27±0.63
T1 construct: Liver homogenates were prepared at 4° C; from tissue; host or cells: liver of C57Bl/6 mice
T1 sequence (P16331 1-453): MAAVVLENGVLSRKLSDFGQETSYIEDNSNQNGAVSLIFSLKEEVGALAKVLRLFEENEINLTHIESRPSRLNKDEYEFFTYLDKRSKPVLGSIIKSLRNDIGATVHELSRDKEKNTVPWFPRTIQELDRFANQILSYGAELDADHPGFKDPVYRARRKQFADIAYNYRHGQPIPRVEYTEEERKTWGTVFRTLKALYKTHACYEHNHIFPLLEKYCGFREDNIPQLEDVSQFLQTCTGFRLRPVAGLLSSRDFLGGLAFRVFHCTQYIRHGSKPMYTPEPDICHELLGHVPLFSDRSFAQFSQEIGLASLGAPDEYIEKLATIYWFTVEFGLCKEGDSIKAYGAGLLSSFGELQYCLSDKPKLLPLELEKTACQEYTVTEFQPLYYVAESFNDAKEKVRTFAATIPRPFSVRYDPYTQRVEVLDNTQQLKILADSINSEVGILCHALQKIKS
Procedure: Solutions of Compounds 11 and Compound 13 were prepared at concentrations of 5 mg/ml (14 mM) in 10% DMSO and 10% glucose. For that, stocks of 50 mg/ml (140 mM) of each compound in 100% DMSO were diluted 1:10 with a 10% glucose solution. Both the stocks and the final solutions of Compounds 11 and 13 are in fact suspensions since the compound is not soluble al these conditions.
Animal experiments were performed by Beat Töny (University of Zurich Children's Hospital). 25 μl/day of 10% DMSO (Group 1, control) or the solutions of Compound 11 (Group 2) or Compound 13 (Group […]) were administered orally for 10 days to young adult C57BI/6 mice (all females) exactly 12 weeks old and with weight between 19 to 23 g were in each group, i.e. in Group 2 and 3 animals were given about 5.9 mg/kg/day. Five animals were treated in each group, and no weight change was experienced upon treatment, i.e. <5% change between start and end. Animals were sacrificed at day 10 of treatment, and their livers were sectioned in two frozen immediately in liquid nitrogen, then the frozen half-livers were sent to the Department of Biomedicine, University of Bergen in dry ice. Liver homogenates were prepared at 4° C. in presence of dithiothreitol (DTT) and the protease inhibitors phenylmethylsulfonyl fluoride, leupeptin, and pepstatin as described, Elzaouk L, et al. J Biol Chem 2003; 278(30):28303-11. After homogeneization the extracts were clarified by centrifugation al 170,000 g for 30 min at 4° C.
as §4

In the case of `Nc1c(-c2ccc3ccccc3n2)c2ccc([N+](=O)[O-])cc2c(=O)n1Cc1ccccc1` [Compound 11, 3-amino-2-benzyl-7-nitro-4-(2-quinolyl)-1,2-dihydroisoquinolin-1-one], the PAH immunoreactive protein [1] was “increase in PAH immunoreactive protein was observed”, the PAH activity enhancement [2] was 60-100% and the Pah-mRNA expression (Pah-mRNA) was “No change”. For the same molecule, the “measured PAH activity” value (PAH) was 2.2±0.78 and the “increase in PAH activity” value (PAH; liver, C57BI/6 mice) was 1.65 fold.

`Cc1ccnc(-n2c(=S)[nH]c3sc(C)c(C)c3c2=O)c1` [Compound 13, 5,6-dimethyl-3-(4-methyl-2-pyridinyl)-2-thioxo-2,3 dihydrothieno[2,3-d]pyrimidin-4(1H)-one] was tested, and the PAH activity enhancement [2] was 40-50%, the “measured PAH activity” value (PAH) was 1.41±0.54 and the “increase in PAH activity (significance)” value (PAH; liver) was “not significant”.
